# Experimental data reported in ChEMBL document CHEMBL1131194, “Covalent modification of cyclooxygenase-2 (COX-2) by 2-acetoxyphenyl alkyl sulfides, a new class of selective COX-2 inactivators” (J Med Chem, 1998).
# Experiments:
# [1] = target: T1, Prostaglandin G/H synthase 1 (Ovis aries, UniProt P05979); assay: Inhibitory concentration in DMSO with purified ovine Prostaglandin G/H synthase 1 (COX-1).
# T1 sequence (P05979 whole entry): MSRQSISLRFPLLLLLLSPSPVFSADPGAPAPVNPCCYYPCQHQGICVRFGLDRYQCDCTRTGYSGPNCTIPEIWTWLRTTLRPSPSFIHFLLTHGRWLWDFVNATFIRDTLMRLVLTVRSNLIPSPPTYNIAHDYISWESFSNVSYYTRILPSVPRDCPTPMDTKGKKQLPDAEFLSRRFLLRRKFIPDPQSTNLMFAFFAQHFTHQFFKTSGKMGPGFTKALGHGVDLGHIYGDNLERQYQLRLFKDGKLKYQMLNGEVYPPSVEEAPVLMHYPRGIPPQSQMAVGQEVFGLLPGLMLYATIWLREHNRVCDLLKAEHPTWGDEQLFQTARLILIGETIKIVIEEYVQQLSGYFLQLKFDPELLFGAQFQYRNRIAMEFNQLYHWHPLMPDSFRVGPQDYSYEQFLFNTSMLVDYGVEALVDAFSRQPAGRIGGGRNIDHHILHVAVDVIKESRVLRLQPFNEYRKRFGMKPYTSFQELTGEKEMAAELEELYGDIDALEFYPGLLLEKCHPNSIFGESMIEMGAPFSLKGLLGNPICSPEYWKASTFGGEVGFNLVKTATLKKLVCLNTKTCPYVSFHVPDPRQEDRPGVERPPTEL
# [2] = target: T2, Prostaglandin G/H synthase 2 (Homo sapiens, UniProt P35354); assay: Inhibitory concentration in DMSO with purified human Prostaglandin G/H synthase 2 (COX-2)
# T2 sequence (P35354 whole entry): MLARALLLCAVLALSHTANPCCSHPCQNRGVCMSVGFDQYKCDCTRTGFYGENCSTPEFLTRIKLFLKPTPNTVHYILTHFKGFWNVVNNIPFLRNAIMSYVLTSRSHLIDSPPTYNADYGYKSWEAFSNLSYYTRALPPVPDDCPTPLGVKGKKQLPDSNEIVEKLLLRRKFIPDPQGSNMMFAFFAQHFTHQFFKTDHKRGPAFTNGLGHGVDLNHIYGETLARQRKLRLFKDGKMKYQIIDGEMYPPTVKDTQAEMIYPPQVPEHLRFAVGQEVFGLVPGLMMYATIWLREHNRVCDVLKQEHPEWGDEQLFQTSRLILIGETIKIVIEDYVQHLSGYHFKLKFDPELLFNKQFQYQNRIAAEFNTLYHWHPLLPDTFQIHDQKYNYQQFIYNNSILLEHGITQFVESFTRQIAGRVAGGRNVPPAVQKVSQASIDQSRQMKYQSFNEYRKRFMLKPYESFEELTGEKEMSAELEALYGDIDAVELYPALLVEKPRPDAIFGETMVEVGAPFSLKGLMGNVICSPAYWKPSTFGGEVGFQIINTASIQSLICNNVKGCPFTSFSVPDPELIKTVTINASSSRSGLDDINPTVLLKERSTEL
Compound,IC50 [1],IC50 [2]
CC(=O)Oc1ccccc1SCCCCC#N,> 50 µM,> 50 µM
CCC(=O)Oc1ccccc1SC,> 1000 µM,> 1000 µM
CC(=O)Oc1ccccc1SCCc1ccccc1,> 150 µM,–
CC(=O)Oc1ccccc1SCc1ccccc1,> 400 µM,–
CCCCC#CCSc1ccccc1OC(=O)CC,> 40 µM,> 40 µM
CC(=O)Oc1ccccc1SCCCc1ccccc1,> 1000 µM,> 1000 µM
CC(=O)Oc1ccccc1SCCCCCO,> 50 µM,> 50 µM
CSc1ccccc1OC(C)=O,> 5000 µM,–
CCCCCCC[S+]([O-])c1ccccc1OC(C)=O (configuration not stated),> 40 µM,> 40 µM
CCCCCCCCc1ccccc1OC(C)=O,> 40 µM,> 40 µM
CC(=O)Oc1ccccc1SCCCOc1ccccc1,> 1000 µM,> 1000 µM
CCCCCCCOc1ccccc1OC(C)=O,> 40 µM,> 40 µM
CCCOCCCSc1ccccc1OC(C)=O,> 50 µM,> 50 µM
CCCCCCC[Se]c1ccccc1OC(C)=O,12 µM,12 µM
CC(=O)Oc1ccccc1SCCCCC(=O)O,> 50 µM,> 50 µM
CCCCC#CCSc1ccccc1OC(C)=O,17 µM,–
CC(=O)Oc1ccccc1SC1CCCCC1,> 40 µM,> 40 µM
CCCCCCCS(=O)(=O)c1ccccc1OC(C)=O,> 40 µM,> 40 µM

# Second part, the compound after the results:
IC50 [1],IC50 [2],Compound
> 40 µM,> 40 µM,CCCCC#CCOc1ccccc1OC(C)=O
> 40 µM,> 40 µM,CCCCCCCCCSc1ccccc1OC(C)=O
35 µM,–,CC#CCSc1ccccc1OC(C)=O
15 µM,7 µM,CCCCC#CC(C)Sc1ccccc1OC(C)=O (configuration not stated)
25 µM,12 µM,CC(=O)Oc1ccccc1SCCCCCCBr
40 µM,–,CCCCSc1ccccc1OC(C)=O
> 40 µM,> 40 µM,CCCCCCCCSc1ccccc1OC(C)=O
> 40 µM,> 40 µM,CC(=O)Oc1ccccc1SC1CCCCCC1
50 µM,50 µM,CC(=O)Oc1ccccc1SCCCCCC(=O)O
> 40 µM,> 40 µM,CCCCCCCN(C)c1ccccc1OC(C)=O
70 µM,10 µM,CC(=O)Oc1ccccc1SCCCCCCI
50 µM,50 µM,CC(=O)OCCCCCSc1ccccc1OC(C)=O
22 µM,–,CCCC/C=C/CSc1ccccc1OC(C)=O
34 µM,9.5 µM,CC(=O)Oc1ccccc1SCCCCCBr
